Measured values as given in US10857180B2, “Pharmaceutical composition for improving health, cure abnormalities and degenerative disease, achieve anti-aging effect of therapy and therapeutic effect on mammals and method thereof” (priority 2014, dated 2020).

Legend:
[1] = system: human breast cancer (MCF-7 line) cells; assay: Immunocytochemistry (H-Score) of MCF-7 cells; assay type: cell-based
Protocol: (§1) When making the immunocytochemistry (ICC) assay, cells on microscope glasses (cytospin preparations) were fixed in the solution (methanol+acetone 1:1) for 2 hours at t 20° C. and incubated with 1% solution of bovine serum albumin (BSA) for 20 minutes. Then the monoclonal antibodies-CD44 (Diagnostic BioSystems), E-cadherin (ThermoScientific), N-cadherin (NeoMarker, BioLegend), SLUG (GeneTex)—were applied for the time period specified by the manufacturer (30 to 60 minutes), after which the Poly Vue imaging system conjugated with peroxidase was used and the enzyme activity was detected using diaminobenzidine (ThermoScientific) as a substrate. After the immunocytochemical reaction the preparations were washed with water and counterstained with hematoxylin-eosin (for 15 to 30 seconds).
(§2) The results were analyzed by counting cells with expression (brown colored cells) using a light microscope, and were assessed using the classical H-Score method: S=1×A+2×B+3×C, where S is the H-Score index giving a range of 0 (protein is not detected) to 300 (high-level expression in 100% of the cells); A is the percentage of weakly staining cells, B is the percentage of moderately staining cells and C is the percentage of strongly staining cells.

HL-60 cells = assay: Morphological and growth characteristics of HL-60 cells; assay type: cell-based, human; details: sulfates, living cell culture
Source text: (§3) However, articles about an important role of EMT in the study of lymphomas and leukemias as well have started coming out recently, which is an interesting stage in the research into the tumor process as a whole, since these tumors radically differ from “usual solid neoplasias” in their histogenesis and, accordingly, in their phenotypic characteristics. Thus, such comprehensive research into adhesion proteins and cell cytoskeleton in the tumor cells of Burkitt lymphoma and acute promyelocyte leukemia after the action of the group of components under study is a relevant and contemporary attempt of a deeper analysis of the modification of a cell phenotype of tumor cells in order to assess changes in the degree of their malignancy. Materials and methods for leukemia cell lines HL-60 and Namalva and cell culture conditions will now be described. […] The first plate was for coloring cells with trypan blue and the second one was for the MTT assay.
After preparation of the corresponding concentrations of the components, they were introduced into appropriate wells of the plate in which HL-60 or Namalva cell were in complete medium. The volume of the culture medium with cells was 100 mcl per well and the concentration of cells in the suspension was 3×10^5 cells/ml (3×10^6/plate). […]

[2] = system: normal rat kidney cells (NRK cell line); assay: Effect on normal rat kidney cells versus Doxorubicin
Source text: An immortalized cell line is a stable, capable of unlimited proliferation cell line that consists of cells with […] in culture.

[3] = system: Burkitt lymphoma (Namalwa line) cells; assay: Immunocytochemical analysis (H-Score) of Namalwa cells; assay type: cell-based, human; details: for amount of N-cadherin-positive cells: exception ^39K 2 mg/ml and ^24Mg 2 mg/ml
Source text: as §3
Initial concentrations of the components.
After preparation of the corresponding concentrations of the components, they were introduced into appropriate wells of the plate in which HL-60 or Namalva cell were in complete medium. The volume of the culture medium with cells was 100 mcl per well and the concentration of cells in the suspension was 3×10^5 cells/ml (3×10^6/plate). After the components were placed into the wells, the final concentration (component+cells in the suspension) became smaller and corresponded to the values given in the Table of Concentration Characteristics.
After the incubation the medium was removed from the wells and the formed tetraformazan crystals were dissolved in 50 mcl of dimethylsulphoxide (Applichem, Germany). The results were fixed using a multi-well spectrophotometer with an excitation wave length of 540 nm. The percent of inhibition of cell viability was calculated using the following formula: IR=(1−A 540 (experiment)/A540 (control))×100%. In carrying out the immunocytochemical (ICC) assay, cells on microscope glasses (cytospin preparations) were fixed in the solution (methanol+acetone (1:1)) for 2 hours at t−20° C. and then incubated with a 1% solution of bovine serum albumin (BSA) for 20 minutes.
Then such monoclonal antibodies as CD44, N-cadherin, ICAM and IgM were applied for the period of time specified in the manufacturer's instructions (30 to 60 minute time intervals), after which Poly Vue imaging system conjugated with peroxidase was used and the enzyme activity was detected using diaminobenzidine (ThermoScientific) as a substrate. After the immunocytochemical reaction, the preparations were rinsed with water and counterstained with hematoxylin and eosin for 15 to 30 seconds. The results were analyzed by a quantitative estimation of cells with the marker expression (increased brown color of cells corresponded to a higher degree of expression of the marker) using a light microscope and assessed using the classical H-Score method: S=1×A+2×B+3×C, where S is the H-Score index the values of which are within the scope of 0 (protein is not detectable) to 300 (high-level expression in 100% of the cells), A is a percentage of weakly stained cells, B is the percentage of moderately stained cells, and C the percentage of strongly stained cells.

COLO 205 cell line = assay: Cytogenetic analysis (micronucleus test) of COLO 205 cells; assay type: cell-based, human; details: ^39K 2 mg/ml, ^64Zn 20 mcg/ml, ^24Mg 4 mg/ml
Protocol: (§4) Advanced Micronucleus Test was used to assess the cytogenetic characteristics of cells after their exposure to the action of the test group of components.
(§5) Cytogenetic analysis was carried out after 48 hours of exposure of the cells to the action of the components. For cytogenetic analysis, the cells were incubated in hypotonic solution KCl (0.54%) (Reahim, Ukraine) for 40 minutes at +37° C. Then they were fixed with a mixture of methyl alcohol (Reahim, Ukraine) and acetic acid (Himlaborreaktiv, Ukraine) (3:1) with replacing the fixative three times. All fixed cell suspensions were applied on cold wet glasses, dried and stained with Giemsa stain (Sigma, Germany). The cytogenetic preparations were analyzed using a binocular microscope Sari Zeiss, AxioStarPlus (Germany) with magnification of x 1000. The following quantitative characteristics and stages of cell division were analyzed on the preparations: mitoses, cells with premature chromosome condensation (PCC), cells with micronuclei (CMN), apoptotic cells and cells with nuclear protrusions (protrusions) which were calculated for 1000 cells and expressed in per mille (%).

A-549 cell line = assay: Cytogenetic analysis (micronucleus test) of A-549 cells; assay type: cell-based, human; details: for increase of cells with protrusions: A-549
Protocol: as §4, §5

[4] = system: normal rat kidney cells (NRK cell line); assay: Scratch assay, NRK cells; assay type: cell-based; details: various doses; as in the control
Protocol: The cells of A-549, A-431, NRK, HaCaT, MM-4, normal fibroblasts (derived from the Bank of Cell Lines from human and animal tissues, R. E. Kavetsky Institute of Experimental Pathology, Oncology and Radiobiology, National Academy of Sciences of Ukraine) were cultured in complete culture medium RPMI 1640/DMEM (PAA, Austria) (depending on the cell type) supplemented with 10% fetal calf serum (PAA, Austria) and incubated in 5% CO2 humidified atmosphere at 37° C. The culture medium was replaced in 2 to 3 days and the cells were passaged in 4 to 5 days.
Analysis of the influence of the components under study on the cell migration rate was performed using the scratch assay method. Cells (5×10^4/well) were seeded into the wells of a 12-well plate in 2 repeats in RPMI-1640/DMEM culture medium supplemented with 10% PBS, 40 mcg/ml of gentamicin and incubated in 5% CO2 humidified atmosphere at 37° C. for 24 hours.
The plate was incubated in a CO2 incubator for additional 48 hours. After the cells formed a dense monolayer it was damaged (by making a “scratch”) and the growth medium was replaced to remove cell debris and smooth the edges of the “scratch.” The rate of cell migration was analyzed using an inverted microscope and by photographing cells in the area of injury. The migration activity of cells was fixed at several time points (depending on the cell line analyzed). The microphotomicrographs were analyzed and the cell incubation time needed to restore the monolayer was determined for all experimental groups.

[5] = system: A-549 cell line (human lung cancer); assay: Type A cell transformation of A-549 cells, effect of solution storage; assay type: cell-based
Protocol: Alluding to the above, the effect of accumulation of antitumor properties of light isotopes containing materials on A-549 tumor cell line will now be discussed. When working with the preparations under study, it was noted that the functional activity of certain doses of the components increased over time after preparation of the solution and its subsequent storage at t+4° C. […] The preparation was stored at the temperature of […].

[6] = system: human non-small cell lung cancer (line A-549) cells; assay: Immunocytochemistry (H-Score) of A-549 cells; assay type: cell-based
Protocol: as §1, §2

## O=S(=O)([O-])[O-].[24Mg+2] [^24Mg]
[1]
  number of Slug-positive cells: insignificantly influenced
HL-60 cells
  morphological and growth characteristics (adhesion): significant enhancement of adhesion of cells to the substrate
[2]
  effect on functional properties of NRK cells: did not affect functional properties
[3]
  IgM marker expression level: decrease in the expression level
  amount of N-cadherin-positive cells: in most cases increased
COLO 205 cell line
  tumor proliferation (cell division) at the stage of G2/M: inhibition of tumor proliferation

## [39K+].[Cl-] [^39K]
[1]
  number of Slug-positive cells: insignificantly influenced
A-549 cell line
  increase of cells with protrusions: 15 fold
[4]
  time of restoration of the damaged monolayer: 30 h
[3]
  IgM marker expression level: decrease in the expression level
  expression of CD44 marker: significant inhibition
  amount of N-cadherin-positive cells: in most cases increased
[5]; ^39K 0.4 mg/ml, in both cases
  transformation of initial tumor cells to cells of type A: 100%
[5]; ^39K 10 mg/ml
  transformation of initial tumor cells to cells of type A: no transformational effect was found
[5]; ^39K sulphate form 2 mg/ml
  number of cells of type A after 20 days of storage vs first day: 2 fold
COLO 205 cell line
  tumor proliferation (cell division) at the stage of G2/M: inhibition of tumor proliferation
[6]
  number of slug-positive cells with nuclear expression: significantly decreased
[6]; dose of IC50
  number of cells with E-cadherin: inhibition

## O=S(=O)([O-])[O-].[64Zn+2] [^64Zn]
[1]
  number of Slug-positive cells: insignificantly influenced
HL-60 cells
  morphological and growth characteristics (adhesion): significant enhancement of adhesion of cells to the substrate
A-549 cell line
  increase of cells with protrusions: ~10 fold
A-549 cell line; ^64Zn 20 mcg/ml, 48 hours
  level of nuclear abnormalities vs control: fifty times as high as the baseline
  level of nuclear abnormalities vs dose of 10 mcg/ml: triple increase
[4]
  time of restoration of the damaged monolayer: 30 h
[2]
  effect on functional properties of NRK cells: did not affect functional properties
[3]
  IgM marker expression level: decrease in the expression level
  expression of CD44 marker: significant inhibition
  amount of N-cadherin-positive cells: in most cases increased
[3]; ^64Zn as sulfate 5 mcg/ml
  number of ICAM-positive cells, H-Score method: 210
[5]; ^64Zn sulphate, after 28 days
  cells of type A: About 50%
COLO 205 cell line
  tumor proliferation (cell division) at the stage of G2/M: inhibition of tumor proliferation
[6]
  slug-positive cells with cytoplasmic expression: decrease
